In series [1] the target is T1, Atrial natriuretic peptide receptor 3 (Mus musculus, UniProt P70180).
T1 sequence (P70180 whole entry): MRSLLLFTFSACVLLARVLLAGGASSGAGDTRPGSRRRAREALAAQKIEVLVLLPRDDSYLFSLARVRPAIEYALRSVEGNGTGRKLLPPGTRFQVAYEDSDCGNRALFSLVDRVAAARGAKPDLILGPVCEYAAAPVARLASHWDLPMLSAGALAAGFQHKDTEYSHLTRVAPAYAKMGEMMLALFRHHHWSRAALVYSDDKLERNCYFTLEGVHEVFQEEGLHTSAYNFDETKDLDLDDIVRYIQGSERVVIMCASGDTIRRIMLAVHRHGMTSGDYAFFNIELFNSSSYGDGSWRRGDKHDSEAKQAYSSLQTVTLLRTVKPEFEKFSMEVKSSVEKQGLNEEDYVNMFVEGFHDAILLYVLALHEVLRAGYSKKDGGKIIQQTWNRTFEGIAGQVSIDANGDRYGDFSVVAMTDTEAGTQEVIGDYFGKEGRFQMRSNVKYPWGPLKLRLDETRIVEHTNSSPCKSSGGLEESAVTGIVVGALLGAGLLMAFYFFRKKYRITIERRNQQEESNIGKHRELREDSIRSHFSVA
In words: Agonist activity at NPRC in wild type mouse mesenteric arteries assessed as vasorelaxation by Organ bath assay. Type of series: tissue-based, Artery.

The target of series [2] is Cytochrome P450 2C9 (Homo sapiens, UniProt P11712). In words: Inhibition of CYP2C9 in human liver microsomes using diclofenac as substrate preincubated for 10 mins followed by NADPH addition and measured after 10 mins by LC/MS/MS analysis.
Series [3] can be described thus: Protein binding in human plasma by equilibrium dialysis assay. Background: Equilibrium dialysis compares concentrations on both sides of a semipermeable membrane.
Series [4] addresses T2, Cytochrome P450 2C8 (Homo sapiens, UniProt P10632).
T2 sequence (P10632 whole entry): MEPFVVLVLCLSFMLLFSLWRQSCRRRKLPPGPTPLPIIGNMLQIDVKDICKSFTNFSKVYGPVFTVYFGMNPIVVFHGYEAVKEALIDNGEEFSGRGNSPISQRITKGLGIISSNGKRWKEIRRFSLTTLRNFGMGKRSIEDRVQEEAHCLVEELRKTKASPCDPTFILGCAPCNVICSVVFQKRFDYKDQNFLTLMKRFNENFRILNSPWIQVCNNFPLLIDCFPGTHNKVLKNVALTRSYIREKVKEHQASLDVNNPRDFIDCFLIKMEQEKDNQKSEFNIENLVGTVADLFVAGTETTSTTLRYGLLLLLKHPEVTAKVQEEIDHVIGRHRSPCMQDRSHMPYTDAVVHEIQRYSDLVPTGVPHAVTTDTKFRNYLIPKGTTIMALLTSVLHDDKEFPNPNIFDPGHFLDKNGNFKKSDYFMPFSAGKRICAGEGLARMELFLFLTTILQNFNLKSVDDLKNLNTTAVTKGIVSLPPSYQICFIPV
The series is described as follows: Inhibition of CYP2C8 in human liver microsomes using amodiaquine as a substrate preincubated for 10 mins followed by NADPH addition and measured after 10 mins by LC/MS/MS analysis.

Series [5] can be described thus: Initial plasma concentration in fasted C57BL/6 mouse at 3 mg/kg, iv by LC-MS/MS analysis.
A short description of series [6]: Half life in fasted C57BL/6 mouse at 3 mg/kg, iv by LC-MS/MS analysis. It is filed as ADME, organism-based. As to conditions: in vivo.
The nature of series [7]: Mean residence time (0 to infinity) in fasted C57BL/6 mouse at 3 mg/kg, iv by LC-MS/MS analysis. As to conditions: in vivo.

Experimental findings from ChEMBL document CHEMBL5154815, “A Series of Substituted Bis-Aminotriazines Are Activators of the Natriuretic Peptide Receptor C” (J Med Chem, 2022) are described below.

For orientation: EC50 means the concentration giving half of the maximal effect. The IC50 is the concentration needed to halve the response being measured. Low values mean greater potency, high ones weaker potency. The half-life is the time in which the quantity being followed falls by half. Lower therefore signals rapid decline. In general, MRT inf refers to a mean duration of stay, worked out from the concentration-time curve.

Chain of Cytochrome P450 2C9 (P11712 whole entry): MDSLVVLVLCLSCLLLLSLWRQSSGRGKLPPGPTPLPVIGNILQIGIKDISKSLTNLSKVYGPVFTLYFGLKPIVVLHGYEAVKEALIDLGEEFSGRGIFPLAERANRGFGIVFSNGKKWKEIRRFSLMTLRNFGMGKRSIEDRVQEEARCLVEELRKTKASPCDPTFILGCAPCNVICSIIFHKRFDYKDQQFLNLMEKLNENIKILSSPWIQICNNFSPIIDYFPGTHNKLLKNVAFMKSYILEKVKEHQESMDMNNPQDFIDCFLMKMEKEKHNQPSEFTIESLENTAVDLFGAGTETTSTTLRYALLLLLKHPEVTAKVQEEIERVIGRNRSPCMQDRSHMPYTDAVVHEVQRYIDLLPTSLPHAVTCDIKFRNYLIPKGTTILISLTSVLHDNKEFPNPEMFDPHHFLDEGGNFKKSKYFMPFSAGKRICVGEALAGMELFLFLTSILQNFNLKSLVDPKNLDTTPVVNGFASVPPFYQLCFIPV

With `CC(=O)Nc1ccc(Nc2ncnc(NCCC(=O)OC(C)(C)C)n2)cc1`, the EC50 in series [1] was 1.58 µM. For the same compound, the IC50 in series [2] and in series [4] was over 50 µM in each case. The compound also returned a PPB in series [3] of 71%. In series [5], this compound registered a C0 of 2330 ng/mL. Also, in series [6], the half-life is 34 min. Besides, in series [7], the MRT inf worked out at 15.7 min.
